Experimental data as given in patent US12448475B2, “Drug delivery compositions and applications thereof” (The University of North Carolina at Chapel Hill, priority 2019, dated 2025).
≈ marks a conversion by molar mass, not a printed value.

Tests used:
[1] = Solubilization of poorly soluble drugs in PMeOx-PcBOx polymeric micelles; details: polymer 10 mg/ml
Excerpt: (§1) (P2). The molecules examined belonged to different classes including transforming growth factor β (TGF-β) receptor inhibitors (LY2109761, GW788388 and LY364947), protein synthesis inhibitors (bruceantin), toll-like receptor (TLR) 7 agonist (imiquimod), phosphatidylinositol 3-kinase (PI3K) inhibitors (wortmannin and pictilisib (GDC-0941)), microtubule inhibitor (paclitaxel), and topoisomerase inhibitors (Aclacinomycin A and SN-38). […] Drugs were screened at various ratios, beginning at 1:10 (drug:polymer), and increased the ratio until maximal solubility was obtained.

physchem = assay: physchem
Excerpt: as §1

[2] = Loading capacity of API-loaded micelles (thin film hydration, HPLC), Example 8; assay type: physicochemical; details: PcBOx triblock (PMeOx-PcBOx-PMeOx) micelles, polymer 10 mg/ml
Method: Drug-encapsulated polymeric nanoparticle formulations were prepared by the thin film hydration method. For resiquimod, imiquimod, and RXDX-105, stock solutions of PMeOx-PcBOx-PMeOx and drugs in chloroform:methanol (9:1) solution were mixed together at the pre-determined ratios (8:10 drug to polymer w/w ratio (resiquimod), 2:10 w/w ratio (imiquimod), 4:10 w/w ratio (RXDX-105)). The organic solvent was evaporated at 58° C. under a stream of inert gas to form a thin-film of drug-polymer homogenous mixture. Next, the thin films were hydrated with saline and then incubated for 5-10 min to form drug-encapsulated polymeric micelle solutions. All samples were prepared with 1 mg of polymer and hydrated with 100 uL of saline. The formed micelle solutions were centrifuged at 10,000 rpm for 3 minutes (Sorvall Legend Micro 21R Centrifuge, Thermo Scientific) to remove any precipitate of unloaded drug or polymer. The final concentration of drugs in PMeOx-PcBOx-PMeOx micelles was analyzed by HPLC (Agilent Technologies 1200 series) using a mixture of acetonitrile/water (70%/30% v/v for Resiquimod and imiquimod; 50%/50% v/v for RXDX-105) as the mobile phase. […] Drug concentration was quantified against free drug calibration curves. Particle z-average effective diameter and polydispersity index (PDI) were measured by dynamic light scattering (DLS) (Nano-ZS, Malvern Instruments, UK). […]

[3] = DLS size distribution of API-loaded micelles, Example 8; assay type: physicochemical; details: PcBOx triblock (PMeOx-PcBOx-PMeOx) micelles
Method: Drug-encapsulated polymeric nanoparticle formulations were prepared by the thin film hydration method. For resiquimod, imiquimod, and RXDX-105, stock solutions of PMeOx-PcBOx-PMeOx and drugs in chloroform:methanol (9:1) solution were mixed together at the pre-determined ratios (8:10 drug to polymer w/w ratio (resiquimod), 2:10 w/w ratio (imiquimod), 4:10 w/w ratio (RXDX-105)). The organic solvent was evaporated at 58° C. under a stream of inert gas to form a thin-film of drug-polymer homogenous mixture. Next, the thin films were hydrated with saline and then incubated for 5-10 min to form drug-encapsulated polymeric micelle solutions. All samples were prepared with 1 mg of polymer and hydrated with 100 uL of saline. The formed micelle solutions were centrifuged at 10,000 rpm for 3 minutes (Sorvall Legend Micro 21R Centrifuge, Thermo Scientific) to remove any precipitate of unloaded drug or polymer. The final concentration of drugs in PMeOx-PcBOx-PMeOx micelles was analyzed by HPLC (Agilent Technologies 1200 series) using a mixture of acetonitrile/water (70%/30% v/v for Resiquimod and imiquimod; 50%/50% v/v for RXDX-105) as the mobile phase. The samples were diluted with mobile phase to final concentration of ˜100 μg/mL of drugs and injected (10 μL) into the HPLC system. The flow rate was 1.0 mL/min, and column temperature was 40° C. Detection wavelength was 254 nm. Drug concentration was quantified against free drug calibration curves. Particle z-average effective diameter and polydispersity index (PDI) were measured by dynamic light scattering (DLS) (Nano-ZS, Malvern Instruments, UK).

[4] = DLS size distribution of drug-loaded PMeOx-PcBOx micelle formulations; assay type: physicochemical; details: drug-loaded PMeOx-PcBOx micelle formulation
[5] = Release profile of encapsulated drugs from polymeric micelles; assay type: physicochemical; details: from P2, after 24 hours, 10:1 polymer:drug feeding ratio
Method: The release profile of encapsulated drugs (Paclitaxel and Bruceantin) in PMeOx-PcBOx was investigated. Both Paclitaxel and Bruceantin were continuously released from PMeOx-PcBOx nanoparticle, with over 80% of drugs being released at 24 hour time point (FIG. 5C). The release rates were similar for Bruceantin in both of the polymers. […] After 24 hours, most of the PTX was released in PcBOx whereas not even 50% was released from P2. This kind of release data is consistent with previously published data at this low (10:1) polymer:drug feeding ratio. Both paclitaxel and Bruceantin formulation in PMeOx-PcBOx were proven stable for 8 days at 4° C. as the drug loading and size distribution were monitored (FIGS. 5E and 5F).

CS(=O)(=O)N1CCN(Cc2cc3nc(-c4cccc5[nH]ncc45)nc(N4CCOCC4)c3s2)CC1 [GDC-0941, pictilisib]
LC (maximum loading capacity) [1]: 4.3%
solubilization (in words) (physchem): practically insoluble

O=C(NC1CCOCC1)c1ccc(-c2cc(-c3c[nH]nc3-c3ccccn3)ccn2)cc1 [GW788388]
LC (maximum loading capacity) [1]: 0.2%

CC(C)Cn1cnc2c(N)nc3ccccc3c21 [Imiquimod, imiquimod]
LC (maximum loading capacity) [1]: undetectable
solubilization (in words) (physchem): practically insoluble
LC (%) [2]: 14.1%
Deff [3]: 160 nm
PDI [3]: 0.18

c1ccc(-c2[nH]ncc2-c2ccnc3ccccc23)nc1 [LY364947]
LC (maximum loading capacity) [1]: 0.3%

c1ccc(-c2nn3c(c2-c2ccnc4cc(OCCN5CCOCC5)ccc24)CCC3)nc1 [LY2109761]
LC (maximum loading capacity) [1]: 24.7%
LE (loading efficiency) [1]: 82%
maximal solubilized drug concentration [1]: ~3.28 mg/mL
LC (maximum loading capacity) (physchem; P2 micelles, polymer 10 mg/ml): 14.0%
LE (loading efficiency) (physchem; P2 micelles, polymer 10 mg/ml): 78%
maximal solubilized drug concentration (physchem; P2 micelles, polymer 10 mg/ml): 1.5 mg/mL
Dv10 [4]: 15.5 nm
Dv50 [4]: 21.5 nm
Dv90 [4]: 34.8 nm
PDI [4]: 0.4
size in DLS measurement [4]: 50 nm

COc1cc2ncnc(Oc3cccc(NC(=O)Nc4cc(C(C)(C)C(F)(F)F)on4)c3)c2cc1OC [RXDX-105]
LC (%) [2]: 24.1%
Deff [3]: 112 nm
PDI [3]: 0.30

CCc1c2c(nc3ccc(O)cc13)-c1cc3c(c(=O)n1C2)COC(=O)[C@]3(O)CC [SN-38]
LC (maximum loading capacity) [1]: undetectable

CC[C@@]1(O)C[C@H](O[C@H]2C[C@H](N(C)C)[C@H](O[C@H]3C[C@H](O)[C@H](O[C@H]4CCC(=O)[C@H](C)O4)[C@H](C)O3)[C@H](C)O2)c2c(cc3c(c2O)C(=O)c2c(O)cccc2C3=O)[C@H]1C(=O)OC [aclacinomycin A, Aclacinomycin A]
LC (maximum loading capacity) [1]: 6.8%

CC(=O)O[C@H]1C(=O)[C@@]2(C)[C@H]([C@H](OC(=O)c3ccccc3)[C@]3(O)C[C@H](OC(=O)[C@H](O)[C@@H](NC(=O)c4ccccc4)c4ccccc4)C(C)=C1C3(C)C)[C@]1(OC(C)=O)CO[C@@H]1C[C@@H]2O [paclitaxel]
LC (maximum loading capacity) [1]: 6.3%
LC (maximum loading capacity) (physchem; P2 micelles, polymer 10 mg/ml): 41%
LE (loading efficiency) (physchem; P2 micelles, polymer 10 mg/ml): 86%
solubility (physchem; aqueous with cosolvent or surfactant or cyclodextrin): 6890 µg/mL (≈ 8.07 mM)
Dv10 [4]: 23.3 nm
Dv50 [4]: 34.6 nm
Dv90 [4]: 80.9 nm
PDI [4]: 0.298
size in DLS measurement [4]: 85 nm
drug released [5]: < 50%
